In assay [1] the test system is MDA-MB-231 (breast) cancer cells. The assay can be described thus: In vitro cytotoxic activity MTT assay, MDA-MB-231. The settings on record: Homo sapiens; MDA-MB-231 cells, exposed for 96 hours, 50% inhibition of cell proliferation; read-out: Cytotoxicity IC50, MDA-MB-231 (breast). It counts as cell-based. As for the experimental part:
(§1) Compounds 1-12 were screened for their in vitro cytotoxic activity utilizing a 3-(4,5-dimethyl-thiazol-2-yl)-2,5-diphenyltetrazolium bromide (MTT) assay against selected cancer human cell lines consisting of PC3 (prostate), HCT116 (colon), A375 (melanoma), H1299 (lung), MIAPaCa-2 (pancreas), HL60 (leukemia), MCF7 (breast), MDA-MB-231 (breast) (T. Mosmann, J. Immunol. Meth., 1983, 65, 55-63). The cells were cultured at 37° C. in RMPI1640 medium supplemented with 10% fetal bovine serum, 50 IU/mL penicillin, and 50 μg/mL streptomycin in a 5% CO2 incubator. All cells were sub-cultured 3 times/week by trypsinisation. Viable cells were seeded and allowed to adhere for 12 h before a test drug was added in 96-well plates at an initial density of 1.0×10^5 cells/mL. Tumour cell lines were separately exposed to various concentrations of the tested compounds followed by incubation at a temperature of 37° C. during 96 h inside a medium of fresh RMPI 1640. Cells were subsequently incubated at 37° C. using MTT at 0.5 mg/mL during 4 h. After removal of supernatant, formazan crystals were dissolved in isopropanol and the optical density was measured at 570 nm. CX-4945 was used as a positive control.
For orientation: Tetrazolium dyes change colour on reduction, which living cells bring about.

In assay [2] the test system is PC3 (prostate) cancer cells. The assay can be described thus: In vitro cytotoxic activity MTT assay, PC3. The format is cell-based. The settings on record: Homo sapiens, PC-3, exposed for 96 hours, 50% inhibition of cell proliferation, read-out: Cytotoxicity IC50, PC3 (prostate). As for the experimental part:
as §1

The target in assay [3] is T1, recombinant human CK2 (RRββ-holoenzyme) (Homo sapiens, UniProt P68400).
T1 construct: purchased Millipore
The assay can be described thus: CK2 Kinase Assay (33P-ATP, filter plate). The note with it: final ATP concentration 15 μM, 10 min at 30° C, eight concentrations; read-out: protein kinase CK2 IC50. The format is biochemical. As for the experimental part: CK2 Kinase Assay was conducted using the protocol as described in Pierre F. et al; J. Med. Chem. 2011, 54, 635-654. The tested compounds in aqueous solution were added at a volume of 10 μL to a reaction mixture comprising 10 μL of assay dilution buffer (ADB; 20 mM MOPS, pH 7.2, 25 mM β-glycerol phosphate, 5 mM EGTA, 1 mM sodium orthovanadate, and 1 mM dithiothreitol), 10 μL of substrate peptide (RRRDDDSDDD, dissolved in ADB at a concentration of 1 mM), 10 μL of recombinant human CK2 (RRββ-holoenzyme, 25 ng dissolved in ADB; Millipore). Reactions were initiated by the addition of 10 μL of ATP solution (90% 75 mM MgCl2, 75 μM ATP (final ATP concentration: 15 μM) dissolved in ADB; 10% [γ-33P] ATP (stock 1 mCi/100 μL; 3000 Ci/mmol (Perkin-Elmer) and maintained for 10 min at 30° C. The reactions were quenched with 100 μL of 0.75% phosphoric acid and then transferred to and filtered through a phosphor cellulose filter plate (Millipore). After washing each well five times with 0.75% phosphoric acid, the plate was dried under vacuum for 5 min and, following the addition of 15 μL of scintillation fluid to each well, the residual radioactivity was measured using a Wallac […] counter. The IC50 values were derived from eight concentrations of test inhibitors.

In assay [4] the test system is H1299 (lung) cancer cells. Description: In vitro cytotoxic activity MTT assay, H1299. The note with it: Homo sapiens, NCI-H1299, exposed for 96 hours, 50% inhibition of cell proliferation, read-out: Cytotoxicity IC50, H1299 (lung). The format is cell-based. The method, then:
as §1

Assay [5] concerns MIAPaCa-2 (pancreas) cancer cells. The assay can be described thus: In vitro cytotoxic activity MTT assay, MIAPaCa-2. It counts as cell-based. The note with it: Homo sapiens, MIA PaCa-2; MIAPaCa-2 cells, exposed for 96 hours, 50% inhibition of cell proliferation; read-out: Cytotoxicity IC50, MIAPaCa-2 (pancreas). As for the experimental part: as §1
In assay [6] the test system is MCF7 (breast) cancer cells. The assay can be described thus: In vitro cytotoxic activity MTT assay, MCF7. The format is cell-based. The settings on record: Homo sapiens, exposed for 96 hours, 50% inhibition of cell proliferation, read-out: Cytotoxicity IC50, MCF7 (breast). The method, then:
as §1

In assay [7] the test system is A375 (melanoma) cancer cells. Description: In vitro cytotoxic activity MTT assay, A375. The format is cell-based. The settings on record: Homo sapiens, A-375, exposed for 96 hours, 50% inhibition of cell proliferation, read-out: Cytotoxicity IC50, A375 (melanoma). The method, then:
as §1

Assay [8] concerns HL60 (leukemia) cancer cells. The assay can be described thus: In vitro cytotoxic activity MTT assay, HL60. The format is cell-based. The settings on record: Homo sapiens, HL-60, exposed for 96 hours, 50% inhibition of cell proliferation, read-out: Cytotoxicity IC50, HL60 (leukemia). As for the experimental part: as §1
For assay [9], the system named is HCT116 (colon) cancer cells. The assay can be described thus: In vitro cytotoxic activity MTT assay, HCT116. The format is cell-based. The settings on record: Homo sapiens, HCT-116, exposed for 96 hours, 50% inhibition of cell proliferation, read-out: Cytotoxicity IC50, HCT116 (colon). The method, then: as §1

Results on one compound are retold here after patent publication US11958853B1, “6-substituted aminopyrazino[2′,1′:2,3]imidazo[4,5-c][1,7]naphthyridine compounds as CK2 inhibitors” (KING FAISAL UNIVERSITY, priority 2023, dated 2024).

SMILES strings stand for the structures. pIC50: −log10 of the molar value.

T1 sequence (P68400 whole entry): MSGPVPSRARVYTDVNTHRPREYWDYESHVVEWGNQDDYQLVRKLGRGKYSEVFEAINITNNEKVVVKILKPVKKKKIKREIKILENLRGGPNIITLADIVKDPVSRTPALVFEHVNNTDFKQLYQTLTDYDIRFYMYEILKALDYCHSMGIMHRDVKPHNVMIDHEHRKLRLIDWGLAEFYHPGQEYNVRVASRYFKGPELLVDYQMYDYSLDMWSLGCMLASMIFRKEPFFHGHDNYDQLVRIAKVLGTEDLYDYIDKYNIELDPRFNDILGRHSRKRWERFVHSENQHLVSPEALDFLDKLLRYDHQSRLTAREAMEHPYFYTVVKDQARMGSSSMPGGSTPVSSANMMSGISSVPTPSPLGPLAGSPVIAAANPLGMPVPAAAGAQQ
T1 sequence (P67870 whole entry partner): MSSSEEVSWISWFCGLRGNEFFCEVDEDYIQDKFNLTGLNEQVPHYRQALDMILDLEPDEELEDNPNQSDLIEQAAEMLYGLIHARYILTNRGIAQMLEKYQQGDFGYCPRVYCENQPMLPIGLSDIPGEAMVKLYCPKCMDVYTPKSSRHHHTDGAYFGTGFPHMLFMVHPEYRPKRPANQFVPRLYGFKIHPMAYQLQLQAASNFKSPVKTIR

With `Clc1cccc(Nc2nc3cnccc3c3nc4cnccn4c23)c1` [Compound 1, N-(3-chlorophenyl)pyrazino[2′,1′:2,3]imidazo[4,5-c][1,7]naphthyridin-6-amine], the pIC50 (commonly −log10 of the IC50, conventionally taken in molar units) is 5.32 in assay [1]; 5.96 in [2]; 7.74 in [3]; 5.72 in assay [4]; 5.92 in assay [5]; 5.25 in assay [6]. Moreover, the pIC50 in [7] was 5.51; in [8], 5.48; in assay [9], 5.85.
